In patent publication US20260166162A1, “CARBON CHAIN SUBSTANCE FOR REGULATING TRANSMEMBRANE TRANSPORT AND FLUIDITY OF CELL MEMBRANES, AND PREPARATION AND USE THEREOF” (priority 2022, published 2026):
Read-outs that look alike come from different tables or passages of the source.

Legend:
Assay type in all cases: cell-based
[1] = system: Hela cells; experiment: Cell membrane fluidity (Laurdan fluorescence recovery) in Hela cells
[2] = system: Epithelial cells; experiment: Interaction of GFP-labelled complexes with cell membrane of epithelial cells (Example II-52, Table II-30); settings: GFP-labelled complex, epithelial cells pretreated 4 hours, n=3
Procedure: The fatty acids were combined with water-soluble small molecules to form a complex, which were labeled with GFP fluorescence to detect cell membrane fluorescence. […] After the cells were stably adhered, the water-soluble fatty acid complexes in the following table were added to the cell culture medium. […] The medium with the drug was pipetted and replaced with normal DMEM medium. […] The green fluorescence intensity was analyzed by imageJ (see Table II-30, n=3).

[3] = system: SARS-CoV-2 pseudovirus (B.1.526.2)

CCCCCCCCCCCCCCCCCC(=O)NCCCCC(N)C(=O)O (stereo not drawn) [Lys-stearic acid]
Fluorescence recovery rate % ([1]; 2 nM, 20 s): 64.38%
Fluorescence recovery rate % ([1]; 2 nM, 40 s): 65.33%
Fluorescence recovery rate % ([1]; 2 nM, 60 s): 66.78%
Fluorescence recovery rate % ([1]; 2 nM, 80 s): 65.32%
Fluorescence recovery rate % ([1]; 5 nM, 20 s): 63.98%
Fluorescence recovery rate % ([1]; 5 nM, 40 s): 64.03%
Fluorescence recovery rate % ([1]; 5 nM, 60 s): 64.52%
Fluorescence recovery rate % ([1]; 5 nM, 80 s): 64.77%
Fluorescence recovery rate % ([1]; 10 nM, 20 s): 64.41%
Fluorescence recovery rate % ([1]; 10 nM, 40 s): 64.81%
Fluorescence recovery rate % ([1]; 10 nM, 60 s): 65.40%
Fluorescence recovery rate % ([1]; 10 nM, 80 s): 65.86%
Fluorescence recovery rate % ([1]; 50 nM, 20 s): 65.08%
Fluorescence recovery rate % ([1]; 50 nM, 40 s): 65.47%
Fluorescence recovery rate % ([1]; 50 nM, 60 s): 65.55%
Fluorescence recovery rate % ([1]; 50 nM, 80 s): 66.26%
Fluorescence recovery rate % ([1]; 50 μM, 20 s): 65.84%
Fluorescence recovery rate % ([1]; 50 μM, 40 s): 71.51%
Fluorescence recovery rate % ([1]; 50 μM, 60 s): 75.97%
Fluorescence recovery rate % ([1]; 50 μM, 80 s): 80.33%
Fluorescence recovery rate % ([1]; 100 μM, 20 s): 64.77%
Fluorescence recovery rate % ([1]; 100 μM, 40 s): 70.54%
Fluorescence recovery rate % ([1]; 100 μM, 60 s): 73.46%
Fluorescence recovery rate % ([1]; 100 μM, 80 s): 78.44%
Mean fluorescence intensity ([2]; 0 Hours after medium replaced): 105.3 ± 5.2
Mean fluorescence intensity ([2]; 2 Hours after medium replaced): 103.4 ± 2.7
Mean fluorescence intensity ([2]; 4 Hours after medium replaced): 98.3 ± 2.5
Mean fluorescence intensity ([2]; 8 Hours after medium replaced): 56.5 ± 5.6
Mean fluorescence intensity ([2]; 12 Hours after medium replaced): 46.7 ± 8.5
Mean fluorescence intensity ([2]; 24 Hours after medium replaced): 39.0 ± 5.3

CCCCCCCCCCCCCCCC(=O)OC(C)C(N)C(=O)O (stereo not drawn) [Thr-palmitic acid]
Mean fluorescence intensity ([2]; 0 Hours after medium replaced): 123.3 ± 6.6
Mean fluorescence intensity ([2]; 2 Hours after medium replaced): 124.4 ± 7.5
Mean fluorescence intensity ([2]; 4 Hours after medium replaced): 119.5 ± 4.1
Mean fluorescence intensity ([2]; 8 Hours after medium replaced): 69.2 ± 7.5
Mean fluorescence intensity ([2]; 12 Hours after medium replaced): 45.3 ± 5.8
Mean fluorescence intensity ([2]; 24 Hours after medium replaced): 42.5 ± 5.7

CCCCCCCCCCCCC(=O)OC(C)C(N)C(=O)O (stereo not drawn) [Thr-tridecaneoic acid]
Mean fluorescence intensity ([2]; 0 Hours after medium replaced): 106.5 ± 6.4
Mean fluorescence intensity ([2]; 2 Hours after medium replaced): 104.3 ± 7.8
Mean fluorescence intensity ([2]; 4 Hours after medium replaced): 96.6 ± 2.6
Mean fluorescence intensity ([2]; 8 Hours after medium replaced): 53.5 ± 2.6
Mean fluorescence intensity ([2]; 12 Hours after medium replaced): 42.5 ± 4.2
Mean fluorescence intensity ([2]; 24 Hours after medium replaced): 39.0 ± 4.3

CCCCCCCCCCC(=O)OC(C)C(N)C(=O)O (stereo not drawn) [Thr-undecanoic acid]
Mean fluorescence intensity ([2]; 0 Hours after medium replaced): 129.5 ± 7.6
Mean fluorescence intensity ([2]; 2 Hours after medium replaced): 123.5 ± 3.5
Mean fluorescence intensity ([2]; 4 Hours after medium replaced): 118.7 ± 5.7
Mean fluorescence intensity ([2]; 8 Hours after medium replaced): 43.6 ± 9.3
Mean fluorescence intensity ([2]; 12 Hours after medium replaced): 35.3 ± 4.0
Mean fluorescence intensity ([2]; 24 Hours after medium replaced): 24.6 ± 3.8

CC/C=C\C/C=C\C/C=C\C/C=C\C/C=C\C/C=C\CCC(=O)OCC(O)C1OC(=O)C(O)=C1O (stereo not drawn) [Vc-DHA]
Mean fluorescence intensity ([2]; 0 Hours after medium replaced): 126.3 ± 7.4
Mean fluorescence intensity ([2]; 2 Hours after medium replaced): 115.4 ± 5.2
Mean fluorescence intensity ([2]; 4 Hours after medium replaced): 109.8 ± 4.9
Mean fluorescence intensity ([2]; 8 Hours after medium replaced): 52.0 ± 6.1
Mean fluorescence intensity ([2]; 12 Hours after medium replaced): 42.0 ± 3.4
Mean fluorescence intensity ([2]; 24 Hours after medium replaced): 37.9 ± 4.6

CCCCCCCCC(=O)OCC(O)C1OC(=O)C(O)=C1O (stereo not drawn) [Vc-nonanoic acid]
Mean fluorescence intensity ([2]; 0 Hours after medium replaced): 129.5 ± 6.7
Mean fluorescence intensity ([2]; 2 Hours after medium replaced): 115.6 ± 6.8
Mean fluorescence intensity ([2]; 4 Hours after medium replaced): 93.7 ± 4.2
Mean fluorescence intensity ([2]; 8 Hours after medium replaced): 46.3 ± 5.7
Mean fluorescence intensity ([2]; 12 Hours after medium replaced): 36.4 ± 5.6
Mean fluorescence intensity ([2]; 24 Hours after medium replaced): 33.0 ± 7.0

CCCCCCCCCCCCCC(=O)OCC(O)C1OC(=O)C(O)=C1O (stereo not drawn) [Vc-tetradecanoic acid]
Mean fluorescence intensity ([2]; 0 Hours after medium replaced): 115.4 ± 4.6
Mean fluorescence intensity ([2]; 2 Hours after medium replaced): 100.2 ± 3.7
Mean fluorescence intensity ([2]; 4 Hours after medium replaced): 87.2 ± 4.6
Mean fluorescence intensity ([2]; 8 Hours after medium replaced): 41.2 ± 9.4
Mean fluorescence intensity ([2]; 12 Hours after medium replaced): 33.6 ± 5.2
Mean fluorescence intensity ([2]; 24 Hours after medium replaced): 27.5 ± 7.3

O=C(O)CCCCCCCCCC(=O)OCC(O)C1OC(=O)C(O)=C1O (stereo not drawn) [Vc-undecanedioic acid]
Mean fluorescence intensity ([2]; 0 Hours after medium replaced): 124.4 ± 4.5
Mean fluorescence intensity ([2]; 2 Hours after medium replaced): 116.4 ± 0.7
Mean fluorescence intensity ([2]; 4 Hours after medium replaced): 112.1 ± 6.3
Mean fluorescence intensity ([2]; 8 Hours after medium replaced): 65.3 ± 3.6
Mean fluorescence intensity ([2]; 12 Hours after medium replaced): 41.3 ± 9.3
Mean fluorescence intensity ([2]; 24 Hours after medium replaced): 35.4 ± 1.6

Uridine diphosphate glucose-dodecanoic acid [UDPGA-C12]
Inhibition rate (%) ([3]; 0.002 µM): 56.54 ± 3.94%
Inhibition rate (%) ([3]; 0.005 µM): 79.66 ± 3.69%
Inhibition rate (%) ([3]; 0.01 µM): 91.38 ± 3.36%
Inhibition rate (%) ([3]; 0.05 µM): 81.33 ± 1.25%
Inhibition rate (%) ([3]; 0.1 µM): 87.47 ± 8.23%
Inhibition rate (%) ([3]; 1 µM): -92.93 ± 0.58%
Inhibition rate (%) ([3]; 10 µM): 73.16 ± 0.59%
Inhibition rate (%) ([3]; 50 µM): 67.37 ± 0.54%
Inhibition rate (%) ([3]; 100 µM): 53.98 ± 0.78%

Uridine diphosphate glucose-oleic acid [UDPGA-OA]
Inhibition rate (%) ([3]; 0.002 µM): 44.54 ± 1.23%
Inhibition rate (%) ([3]; 0.005 µM): 50.06 ± 1.05%
Inhibition rate (%) ([3]; 0.01 µM): 54.94 ± 1.84%
Inhibition rate (%) ([3]; 0.05 µM): 67.33 ± 1.00%
Inhibition rate (%) ([3]; 0.1 µM): 84.96 ± 4.55%
Inhibition rate (%) ([3]; 1 µM): -82.33 ± 0.53%
Inhibition rate (%) ([3]; 10 µM): -54.00 ± 0.23%
Inhibition rate (%) ([3]; 50 µM): 73.06 ± 0.26%
Inhibition rate (%) ([3]; 100 µM): 83.61 ± 0.88%

Uridine diphosphate glucose-pentacosanoic acid [UDPGA-C25]
Inhibition rate (%) ([3]; 0.002 µM): 46.04 ± 0.98%
Inhibition rate (%) ([3]; 0.005 µM): 49.66 ± 0.58%
Inhibition rate (%) ([3]; 0.01 µM): 48.66 ± 1.59%
Inhibition rate (%) ([3]; 0.05 µM): 59.03 ± 1.25%
Inhibition rate (%) ([3]; 0.1 µM): 88.64 ± 4.53%
Inhibition rate (%) ([3]; 1 µM): -12.03 ± 0.83%
Inhibition rate (%) ([3]; 10 µM): -64.26 ± 0.59%
Inhibition rate (%) ([3]; 50 µM): 71.36 ± 0.88%
Inhibition rate (%) ([3]; 100 µM): 92.33 ± 0.73%

cholylglycine-Ricinoleic acid [cholylglycine-C18-1-OH]
Inhibition rate (%) ([3]; 2 nM, n=3): 72.59 ± 5.58%
Inhibition rate (%) ([3]; 5 nM, n=3): 74.66 ± 1.25%
Inhibition rate (%) ([3]; 10 nM, n=3): 78.34 ± 2.55%
Inhibition rate (%) ([3]; 50 nM, n=3): 89.33 ± 2.25%
Inhibition rate (%) ([3]; 100 nM, n=3): 88.76 ± 4.58%
Inhibition rate (%) ([3]; 1 μM, n=3): -32.33 ± 0.57%
Inhibition rate (%) ([3]; 10 μM, n=3): -54.26 ± 0.88%
Inhibition rate (%) ([3]; 50 μM, n=3): 71.09 ± 0.58%
Inhibition rate (%) ([3]; 100 μM, n=3): 73.68 ± 0.71%

cholyltaurine-tetradecanoic acid [cholyltaurine-C14]
Inhibition rate (%) ([3]; 2 nM, n=3): 70.54 ± 3.20%
Inhibition rate (%) ([3]; 5 nM, n=3): 79.66 ± 5.66%
Inhibition rate (%) ([3]; 10 nM, n=3): 81.84 ± 4.57%
Inhibition rate (%) ([3]; 50 nM, n=3): 80.88 ± 1.22%
Inhibition rate (%) ([3]; 100 nM, n=3): 79.06 ± 2.22%
Inhibition rate (%) ([3]; 1 μM, n=3): -94.23 ± 5.55%
Inhibition rate (%) ([3]; 10 μM, n=3): 4.26 ± 0.95%
Inhibition rate (%) ([3]; 50 μM, n=3): 67.55 ± 0.25%
Inhibition rate (%) ([3]; 100 μM, n=3): 58.98 ± 0.44%
